Source: US20080261911A1, “Uses of diphenyl/diphenylamine carboxylic acids” (priority 2006, published 2008)

Key:
VEGFR1 = VEGFR1 protein expression in Panc-1 cells (Western blot, immunostaining); assay type: cell-based; details: 50 μM, 48 h
Description: FIGS. 14A-14D show tolfenamic acid decreases expression of Sp and VEGFR1 proteins in pancreatic cancer cells. Tolfenamic acid effects on Panc-1 cells (FIG. 14A and FIG. 14B), and L3.6pl cells (FIG. 14C and FIG. 14D). Cells were treated with DMSO, 50 μM tolfenamic acid, or 50 μM ampiroxicam for 48 h, and whole cell lysates were analyzed by Western blot analysis. […] FIGS. 16A-16D show the interaction of Sp proteins with VEGFR1 promoter sequences. […] The specific Sp protein bands and antibody supershifted complexes are indicated with arrows. Effects of tolfenamic acid on VEGFR1 and Egr-1 protein expression in Panc-1 cells (FIG. 16C), and L3.6pl cells (FIG. 16D). […] Cells are washed once with phosphate buffered saline PBS and collected by scraping in 200 μL of lysis buffer [50 mM HEPES, 0.5M sodium chloride, 1.5 mM magnesium chloride, 1 mM EGTA, 10% (v/v) glycerol, 1% Triton X-100, 5 μL/ml of Protease Inhibitor Cocktail (Sigma)]. The lysates from the cells are incubated on ice for 1 hr with intermittent vortexing followed by centrifugation at 40,000 g for 10 min at 4° C. […] Samples are electrophoresed, transferred to membranes, and proteins detected by incubation with polyclonal primary antibodies Sp1, Sp3, Sp4, HDAC, VEGF (a-20), c-Met, surviving, VEGF, cleaved PARP, and β-tubulin (H-235) followed by blotting with appropriate horseradish peroxidase-conjugated secondary antibody as previously described (Abdelrahim et al, 2004). After autoradiography, band intensities are determined by a scanning laser densitometer (Sharp Electronics Corporation, Mahwah, N.J.) using ZERO-D […] software (Scanalytics Corporation, Billerica, Mass.).

[1] = test system: Sp protein binding to GC-rich VEGF promoter oligonucleotide; assay: Gel mobility shift of nuclear extracts from L3.6pl cells with VEGF32P; assay type: cell-based, human; details: nuclear extracts of L3.6pl cells treated with 50 μM for 48 hr
Description: Vascular endothelial growth factor and VEGFR1 oligonucleotides are synthesized and annealed, and 5 pmol aliquots are 5′-end-labeled using T4 kinase and [y-^32P]ATP. After the reaction sample was incubated 20 min on ice, and antibodies against Sp1, Sp3, and Sp4 proteins are added and incubated another 20 min on ice. Protein-DNA complexes are resolved by 5% polyacrylamide gel electrophoresis as previously described (Abdelrahim et al, 2004; Abdelrahim et al, 2005, Abdelrahim et al, submitted 2005).
Panc1 or L3.6pl cells were treated with DMSO, 50 μM tolfenamic acid or 50 μM ampiroxicam for 48 hr. Nuclear extracts from these cells were isolated, incubated with VEGF^32P and analyzed in gel mobility shift assays.
The radiolabeled oligonucleotide contained a GC-rich region (−66 to −47) from the VEGF promoter that binds Sp proteins.

[2] = test system: VEGF-B/VEGFR1 signaling (MAPK1/2 phosphorylation); assay: VEGF-B activation of MAPK in Panc-1 cells; assay type: cell-based; details: 50 μM pretreatment for 36 hr, VEGF-B 5 or 10 min
Description: Cells were pretreated with DMSO, 50 μM ampiroxicam, or 50 μM tolfenamic acid for 36 hr; VEGF-B (50 ng/ml) was added for 5 or 10 min, and whole cell lysates were obtained and analyzed by Western blot. Cell migration assay (FIG. 18C). […] Immunostaining of pancreatic tumors (FIG. 18D). Pancreatic tumors from athymic nude mice treated with solvent (control), gemcitabine (50 mg/kg), or tolfenamic acid (25 and 50 mg/kg) (Dick, 1996) were stained with VEGFR1 antibodies as described below and in a previous report (Dick, 1996).
Panc-1 cells were pretreated with DMSO, 50 μM ampiroxicam, or 50 μM tolfenamic acid for 48 h, and then were treated with VEGF-B (50 ng/ml) for 5 and 10 min. MAPK phosphorylation in the various treatment groups was then determined by western immunoblot analysis as described above. For migration assays, Panc-1 cells were seeded in triplicate in six-well collagen IV coated plates and then treated with the selected non-steroidal anti-inflammatory drugs for 24 h before the scratch was made. […]
Previous studies have reported that activation of VEGFR1 by VEGF-B in pancreatic cancer cells results in enhanced phosphorylation of MAPK and increased cell migration and invasion. […] The importance of Sp protein in VEGFR1-dependent Panc-1 cell migration was determined using a cell migration assay on collagen IV-coated plates.

Egr-1 protein = Egr-1 protein expression in Panc-1 cells, Western blot; assay type: cell-based; details: 50 μM, 48 h
Description: Cells are washed once with phosphate buffered saline PBS and collected by scraping in 200 μL of lysis buffer [50 mM HEPES, 0.5M sodium chloride, 1.5 mM magnesium chloride, 1 mM EGTA, 10% (v/v) glycerol, 1% Triton X-100, 5 μL/ml of Protease Inhibitor Cocktail (Sigma)]. The lysates from the cells are incubated on ice for 1 hr with intermittent vortexing followed by centrifugation at 40,000 g for 10 min at 4° C. Equal amounts of protein (60 μg) from each treatment group are diluted with loading buffer, boiled and loaded onto 10 and 12.5% SDS-polyacrylamide gel. For vascular endothelial growth factor immunoblots, 100 μg of protein are used. Samples are electrophoresed, transferred to membranes, and proteins detected by incubation with polyclonal primary antibodies Sp1, Sp3, Sp4, HDAC, VEGF (a-20), c-Met, surviving, VEGF, cleaved PARP, and β-tubulin (H-235) followed by blotting with appropriate horseradish peroxidase-conjugated secondary antibody as previously described (Abdelrahim et al, 2004). After autoradiography, band intensities are determined by a scanning laser densitometer (Sharp Electronics Corporation, Mahwah, N.J.) using ZERO-D SCANALYTICS software (Scanalytics Corporation, Billerica, Mass.).
The proximal region of the VEGFR1 promoter contains GC-rich and Egr-1 sites. […]

Panc-28 cells = assay: Cell proliferation assay, Panc-28 cells; assay type: cell-based
Description: FIGS. 7A-7D compares effects of tolfenamic acid and ampiroxicam on pancreatic cancer cell proliferation. […] Panc1, Panc28 and L3.6pl cells are seeded in DMEM/F12 media with 5% FBS and treated the next day with either vehicle (DMSO) or with the indicated compounds' concentrations. Cells are counted at the indicated times using a Z1™ COULTER COUNTER® cell counter. Each experiment is carried out in triplicate and results expressed as means ±SD for each determination.

VEGF mRNA = VEGF mRNA levels in Panc-1 cells, semi-quantitative RT-PCR; assay type: cell-based
[3] = test system: Sp1, Sp3 and Sp4 proteins; assay: Western blot of Sp1, Sp3 and Sp4 protein expression in L3.6pl cells; assay type: cell-based, human; details: 50 μM, 48 hr
Description: Cells were treated with 50 μM non-steroidal anti-inflammatory drugs/COX-1/2 inhibitors for 48 hr and whole cell lysates were analyzed by Western blot analysis. […] Protein band intensities were standardized based on β-tubulin protein as a loading control.
Cells are washed once with phosphate buffered saline PBS and collected by scraping in 200 μL of lysis buffer [50 mM HEPES, 0.5M sodium chloride, 1.5 mM magnesium chloride, 1 mM EGTA, 10% (v/v) glycerol, 1% Triton X-100, 5 μL/ml of Protease Inhibitor Cocktail (Sigma)]. The lysates from the cells are incubated on ice for 1 hr with intermittent vortexing followed by centrifugation at 40,000 g for 10 min at 4° C. Equal amounts of protein (60 μg) from each treatment group are diluted with loading buffer, boiled and loaded onto 10 and 12.5% SDS-polyacrylamide gel. […] Samples are electrophoresed, transferred to membranes, and proteins detected by incubation with polyclonal primary antibodies Sp1, Sp3, Sp4, HDAC, VEGF (a-20), c-Met, surviving, VEGF, cleaved PARP, and β-tubulin (H-235) followed by blotting with appropriate horseradish peroxidase-conjugated secondary antibody as previously described (Abdelrahim et al, 2004). After autoradiography, band intensities are determined by a scanning laser densitometer (Sharp Electronics Corporation, Mahwah, N.J.) using ZERO-D SCANALYTICS software (Scanalytics Corporation, Billerica, Mass.).

Structure (SMILES) | VEGFR1 immunostaining (VEGFR1) | VEGFR1 protein levels, Western blot (VEGFR1) | Sp3 and Sp1/Sp4 retarded bands with VEGF32P [1] | VEGF-B-induced phosphorylation of MAPK1/2 [2] | Egr-1 protein (Egr-1 protein) | potency as inhibitor of pancreatic cell growth relative to ampiroxicam (Panc-28 cells) | cell growth (Panc-28 cells; 25-100 μM, 6 days) | decrease of vascular endothelial growth factor mRNA levels (VEGF mRNA; 50 μM, 24 hours, compared to DMSO) | VEGF mRNA stability (VEGF mRNA; actinomycin D alone or with 50 μM tolfenamic acid, up to 4.5 hr) | decrease of Sp1, Sp3 and Sp4 proteins [3]
Cc1c(Cl)cccc1Nc1ccccc1C(=O)O [tolfenamic acid] | decreased VEGFR1 staining | decreased VEGFR1 protein levels | retarded bands were decreased | decreased phospho-MARK1/2 | unchanged in all treatment groups | more potent as an inhibitor of pancreatic cell growth than ampiroxicam | significantly (p<0.05) inhibited cell growth | greater than 60% | decreased at similar rates | greater than 65%
CCOC(=O)OC(C)OC1=C(C(=O)Nc2ccccn2)N(C)S(=O)(=O)c2ccccc21 (centres unmarked) [ampiroxicam] | VEGFR1 immunostaining was observed | only the latter compound decreased VEGFR1 protein levels |  | increased phosphorylation of MAPK1/2 | unchanged in all treatment groups |  |  |  |  | 
